The conditions of data set [1]: for time of continuous stirring until it went into solution: 10 mg/ml in 13% w/v sulfobutyl ether β-cyclodextrin in 0.9% saline; for dissolution at a concentration of 10 mg/ml: 13% w/v sulfobutyl ether β-cyclodextrin in 0.9% saline.
The test system of data set [2] is rats. As to the kind of experiment: Effect of Captisol premedication on the death rate of Althesin.
Where [3] appears, read: SBECD7 (13% solution) premed 5.25 mls/kg 60 s before Althesin @ 16 x AD95 (52.5 mg/kg alphaxalone iv), 10 rats.

In the case of `C[C@]12CC[C@@H](O)C[C@@H]1CC[C@H]1[C@@H]3CC[C@H](C(=O)CO)[C@@]3(C)CC(=O)[C@@H]12` [alphadolone], in data set [1], the “time of continuous stirring until it went into solution” value came out at 4 h and the “dissolution at a concentration of 10 mg/ml” value was “dissolved completely”.

In the case of “(7) sulfobutyl ether β-cyclodextrin [SBECD7]”, in data set [2] (setting [3]), the “n did not die” value is 8 and the n died is recorded as 2. The “effect on mortality caused by alphaxalone as Althesin” value in data set [2] (premedication 60 s before 52.5 mg/kg alphaxalone as Althesin) was “statistically and clinically significant reduction in the mortality”.

As to `CC(=O)[C@H]1CC[C@H]2[C@@H]3CC[C@@H]4C[C@H](O)CC[C@]4(C)[C@H]3CC[C@]12C` [pregnanolone], in data set [1], the “time of continuous stirring until it went into solution” value is 4 h and the “dissolution at a concentration of 10 mg/ml” value was “dissolved incompletely”.
